The data set can be described thus: Water solubility of the peptides, with or without surfactant (appearance). The class given is physicochemical. The procedure: KS-133 and KS-133(P3S) (a substitution of proline at position three of KS-133 with serine) were synthesized at SCRUM Inc. (Tokyo, Japan) using Fmoc-based solid-phase peptide synthesis as previously reported. After reverse phase–high-performance liquid chromatography (RP–HPLC) purification, structural assignment was performed by matrix-assisted laser desorption ionization–time-of-flight mass spectrometry (MS). All analytical data of peptides in this report are presented in S1 Table. Cremophor EL® (CrEL) (09727–14) was purchased from Nacalai Tesque, Inc. (Kyoto, Japan). The nanoformulation of peptide using CrEL was done by basically according to the method as previously reported. First, KS-133 or KS-133(P3S) (20 mg) was dissolved in DMSO (100 μL), giving a concentration of 200 mg/mL. Next, CrEL (100 μL) was mixed with purified water (350 μL). The peptide solution was added dropwise to the stirring CrEL solution and mixed. Then, the peptide/CrEL solution made into a suspension by repeated vortex agitation and sonication at approximately 50°C. Purified water (450 μL) was added to the peptide/CrEL solution, and the same process was repeated. […]
Fig 3 Nanoformulation of peptides using CrEL and their characterization. […] The determined particle size of KS-133 NPs was approximately 15.34 nm, and that of KS-133(P3S) NPs was approximately 15.96 nm. […]

Where a SMILES comes first, the peptide text is derived from it. Bridges are numbered along the chain shown (N, C = ends).

Regarding `CC[C@H](C)[C@H](NC(=O)[C@H](CC(C)C)NC(=O)[C@@H]1CC(=O)NCCCC[C@@H]2NC(=O)[C@@H]3CCCN3C(=O)[C@H](CC(C)C)NC(=O)[C@H](Cc3ccc(O)cc3)NC(=O)[C@@H]3CCCN3C(=O)[C@@H]3CCCN3C(=O)[C@@H](NC(C)=O)CSSC[C@H](NC(=O)[C@H](CC(C)C)NC(=O)[C@H](Cc3ccc(O)cc3)NC2=O)C(=O)N1)C(N)=O` [KS-133] (Ac-CPPYLPKYLCDLI-NH2; disulfide 1-10; lactam 7-11), where the note is “Fig 3C, transparent solution immediately after preparation”, the “concentration that could be dissolved in DMSO(10%)/CrEL(10%)” value is at least 20000 µg/mL. Further, for the setting “without surfactant”, the “solubility in aqueous solution / water solubility (in words)” value is recorded as “poor solubility”.

Source of the values: article PMC10321640, “The VIPR2-selective antagonist KS-133 changes macrophage polarization and exerts potent anti-tumor effects as a single agent and in combination with an anti-PD-1 antibody” (PLOS ONE, 2023).
